Assay results reported in patent US11090313B2, “Methods for inhibiting muscle atrophy” (UNIVERSITY OF IOWA RESEARCH FOUNDATION, priority 2010, dated 2021).
“Also recorded” adds a separate entry of the source.

Tests used:
Assay type in all cases: in vivo, mouse
[1] = system: C57BL/6 mice; experiment: Fasting-induced muscle atrophy in mice (i.p. dosing, 24 h fast)
Description: The mice were then fasted, and after 12 hours of fasting, the mice received a second dose of the compound or vehicle. After 24 hours of fasting, the blood glucose was measured and muscles were harvested. The data shown in FIGS. 6C-6H are means±SEM from ≤16 mice per condition. […] The effects of metformin and ursolic acid on fasting-induced muscle atrophy were also examined, i.e. the effect of 24 h fast (relative to ad lib feeding) on wet weight of lower hindlimb skeletal muscle (bilateral tibialis anterior (“TA” muscle), gastrocnemius, and soleus; see FIGS. 6E-6G). […] In FIGS. 6E-6H, each data point represents one mouse and the horizontal bars denote the means. In FIGS. 6C-6H, P-values were determined using unpaired t-tests.
Mice were then fasted, and after 12 hours of fasting, mice received a second dose of ursolic acid, oleanolic acid, or vehicle. After 24 hours of fasting, lower hindlimb skeletal muscles and liver were harvested and weighed.
To test this, food was withdrawn from mice, and then vehicle, ursolic acid (200 mg/kg) or tomatidine (50 mg/kg) were administered by i.p. injection. Twelve hours later, mice received another i.p. injection of vehicle or the same dose of ursolic acid or tomatidine. Twelve hours later, skeletal muscles were harvested and weighed. […] We next used the same protocol to compare the effects of vehicle (corn oil) and tomatidine (5, 15 and 50 mg/kg).

[2] = system: C57BL/6 mice; experiment: Denervation-induced skeletal muscle atrophy model
[3] = system: mice; experiment: High fat diet with ursolic acid and/or naringenin; settings: 5 weeks
Description: To determine this, weight-matched mice were provided ad libitum access to standard (Harlan Teklad formula 7013), high fat diet (HFD; Harlan Teklad formula TD93075), or HFD containing varying concentrations of ursolic acid (0.15%) and/or naringenin (0.5% or 1.5%). After the mice consumed these diets for 5 weeks, fasting blood glucose, total body weight, fat mass, liver weight, grip strength, and skeletal muscle weight was measured.

[4] = system: mice; experiment: Immobilization-induced skeletal muscle atrophy model (stapled tibialis anterior); settings: i.p. twice daily
Description: To test this, a mouse model of immobilization-induced skeletal muscle atrophy was used: mice were administered vehicle (corn oil) or varying doses of ursolic acid (positive control) or betulinic acid via intraperitoneal injection twice a day for two days. One tibialis anterior (TA) muscle was immobilized with a surgical staple, leaving the contralateral mobile TA as an intra-subject control. The vehicle or the same dose of ursolic acid or betulinic acid was continuously administered via i.p. injection twice daily for six days before comparing weights of the immobile and mobile TAs.
To test this, mice were administered vehicle (corn oil), ursolic acid (200 mg/kg), naringenin (200 mg/kg), or the combination of ursolic acid and naringenin (each at 200 mg/kg) via i.p injection twice a day for two days. One tibialis anterior (TA) muscle was immobilized with a surgical staple, leaving the contralateral mobile TA as an intrasubject control. Vehicle or the same doses of ursolic acid and/or naringenin was continuously administered via i.p. injection twice daily for six days before comparing weights of the immobile and mobile TAs.
To test this, mice were administered vehicle (corn oil) or tomatidine (50, 100 or 200 mg/kg) via i.p injection twice a day for two days. One tibialis anterior (TA) muscle was immobilized with a surgical staple, leaving the contralateral mobile TA as an intrasubject control. Vehicle or the same doses of tomatidine was administered via i.p. injection twice daily for six days before comparing weights of the immobile and mobile TAs. […] The same protocol was used to compare the effects of vehicle (corn oil) and tomatidine (5, 15 or 50 mg/kg) on immobilization-induced muscle atrophy.

[5] = system: extensor digitorum longus and peroneus muscles; experiment: Ex vivo specific tetanic force of muscles from mice fed ursolic acid
From the text: Briefly, six-week old male C57BL/6 mice were provided either standard diet or diet containing 0.27% ursolic acid for 16 weeks before being euthanized. The lower hindlimb was removed (by transsecting the upper hindlimb mid-way through the femur), and placed in Krebs solution aerated with 95% 02 and 5% C02. The gastrocnemius, soleus and tibialis anterior muscles, as well as the distal half of the tibia and fibula were then removed and discarded, leaving the extensor digitorum longus and peroneus muscles with their origins and insertions intact. A suture was placed through the proximal tendon and secured to the distal femur fragment. This ex vivo preparation was then mounted vertically in a water jacket bath (Aurora Scientific 1200A Intact Muscle Test System, filled with aerated Krebs solution) by attaching the suture to a servo-controlled lever (superiorly) and clamping the metatarsals (inferiorly). Passive muscle force was adjusted to a baseline of 1 g, and then muscles were stimulated with supramaximal voltage (80 V) at 100 Hz. The mean time from euthanasia to maximal force measurements was 10 min. After force measurements, muscles were removed and weighed in order to calculate specific titanic force. […] Data are means±SEM from 5-6 mice per diet. P-values were determined with a t-test.

[6] = system: C57BL/6 mice; experiment: High fat diet model of obesity and metabolic syndrome with ursolic acid; settings: high fat diet containing 0.27% ursolic acid
Description: To test this, C57BL/6 mice were given ad libitum access to a high fat diet (HFD; Teklad TD.93075; 55% calories from fat) lacking or containing 0.27% ursolic acid. After 7 weeks, mice from each group were studied for three days in comprehensive lab animal monitoring systems (“CLAMS”; Columbus Instruments). In the CLAMS, mice were maintained on the same diet they had been eating since the beginning of the experiment. Following CLAMS, tissues were harvested for analysis.
The study was carried out as follows: C57BL/6 mice were given ad libitum access to a high fat diet (“HFD”; Teklad TD.93075; 55% calories from fat) lacking or containing 0.27% ursolic acid. After 5 weeks, mice were fasted for 16 h before blood glucose was measured via the tail vein (FIG. 15A). Normal fasting blood glucose: ≤100 mg/dl. (B-I) After 7 weeks, liver and plasma were harvested for analysis (FIGS. 15B-15H).

[7] = ursolic acid 200 mg/kg i.p. twice, 24 h fast, qPCR, normalized to vehicle
[8] = HFD with ursolic acid 0.15% or naringenin 0.5% or 1.5%
[9] = 0.27% ursolic acid diet 16 weeks vs standard diet

Compound: C[C@H]1[C@H](C)CC[C@]2(C(=O)O)CC[C@]3(C)C(=CC[C@@H]4[C@@]5(C)CC[C@H](O)C(C)(C)[C@@H]5CC[C@]43C)[C@H]12 [ursolic acid]
- skeletal muscle weight in fasted mice (fasting-induced muscle atrophy) ([1]; i.p. at 0 and 12 h of 24 h fast, vs vehicle, mg/kg: ursolic acid 200, oleanolic acid 200, metformin 250, tomatidine 50, allantoin 2, tacrine 4, ungerine 2, hippeastrine 2, conessine 2): increased skeletal muscle weight; also recorded: increased muscle weight in fasted mice
- fasting blood glucose ([1]; mice, i.p. at 0 and 12 h of 24 h fast, mg/kg: metformin 250, ursolic acid 200, hippeastrine 2, conessine 2): significantly reduced fasting blood glucose
- increase of muscle weight in fasted mice ([1]; ursolic acid 200 mg/kg i.p. twice, 24 h fast, bilateral TA, gastrocnemius and soleus wet weight): 7±2%
- MuRF1 mRNA levels in TA muscles of fasted mice [1, 7]: reduced fasting levels
- atrogin-1 mRNA levels in TA muscles of fasted mice [1, 7]: reduced fasting levels
- denervated skeletal muscle fiber diameter (gastrocnemius and TA) ([2]; ursolic acid 200 mg/kg i.p. twice daily 7 days): increase in the size of denervated skeletal muscle fiber diameter
- denervation-induced muscle loss (denervated/innervated lower hindlimb muscle weight) ([2]; ursolic acid 200 mg/kg i.p. twice daily 7 days after sciatic nerve transsection): significantly decreased denervation-induced muscle loss
- fasting blood glucose in high fat fed mice ([3]; HFD with ursolic acid 0.15% and/or naringenin 0.5% or 1.5%): partially prevented
- grip strength in high fat fed mice [3, 8]: increased strength to a greater extent than naringenin
- skeletal muscle weight in high fat fed mice [3, 8]: increased muscle weight
- dose of maximal inhibition of immobilization-induced muscle atrophy [4]: 200 mg/kg
- immobilization-induced muscle atrophy (weights of immobile vs mobile TA) ([4]; 2 days before and 6 days after immobilization, ursolic acid and betulinic acid varying doses, naringenin 200 mg/kg, tomatidine 5-200 mg/kg): reduced muscle atrophy in a dose-dependent manner; also recorded: reduces immobilization-induced skeletal muscle atrophy
- maximal tetanic force [5, 9]: did not differ between the two groups
- muscle weight (extensor digitorum longus and peroneus) [5, 9]: did not differ between the two groups
- specific force generated by muscles ex vivo ([5]; 0.27% ursolic acid diet 16 weeks, 80 V, 100 Hz): increased the specific force generated by muscles ex vivo
- weight gain [6]: dramatically reduced weight gain
- impaired fasting glucose (pre-diabetes) or diabetes ([6]; 5 weeks, 16 h fast): prevented
- brown fat in scapular fat pad ([6]; 7 weeks): increased brown fat
- energy expenditure (CLAMS) ([6]; 7 weeks): increased energy expenditure
- grip strength ([6]; 7 weeks): increased grip strength
- hepatic changes of fatty liver disease (liver weight, hepatocellular lipid accumulation, plasma AST, ALT, alkaline phosphatase) ([6]; 7 weeks): prevented all of these hepatic changes
- muscle mass ([6]; 7 weeks): increased
- obesity-related hypercholesterolemia (plasma cholesterol) ([6]; 7 weeks): reduced obesity-related hypercholesterolemia
- retroperitoneal and epididymal fat ([6]; 7 weeks): reduced retroperitoneal and epididymal fat
- white fat in scapular fat pad ([6]; 7 weeks): reduced white fat
